Several values for one entry are separate records, joined by “and”; a condition that tells them apart may be missing. Identical values can stand only once.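 Cultured in 96-well plates, cells were exposed to test compound for 48 hours across five concentrations. GI50: concentration for 50% inhibition of growth. At the TGI there is no net growth.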

Common to all, as to test: DTP human tumour cell line panel, 48 h
Assay [1] relates to IGROV1 ovarian.
Assay [2] relates to SNB-19 CNS.
Assay [3] relates to COLO 205 colon.
In assay [4] the test system is OVCAR-4 ovarian.
Assay [5] deals with SNB-75 CNS.
For assay [6], the system named is UACC-62 melanoma.
The subject of assay [7] is HCT-15 colon.
The subject of assay [8] is RPMI-8226 leukemia.
The test system of assay [9] is HCT-116 colon.
Assay [10] relates to PC-3 prostate.

In general, TGI refers to the concentration giving total growth inhibition. Read a low TGI as more potent growth arrest. With `CCc1ccccc1-n1c2nc(=O)n(C)c(=O)c-2nc2ccccc21`, the TGI in [1] is 35.4 µM; in [2], 23.5 µM; in assay [3], 12.5 µM; in assay [4], 18.2 µM; in assay [5], 28.8 µM; in [6] it was 5.15 µM. Besides, the TGI in [7] was 23.4 µM; in assay [8], 58.7 µM; in assay [9], 25.8 µM.

For `O=C(/C=C/c1c(O)ccc2ccccc12)c1cccc2ccccc12`, the total growth inhibition concentration (TGI) in [1], in [2], in [3], in [5], in [6] and in assay [7] was more than 100 µM each time. Also, the TGI in assay [8] was more than 78 µM; in [9] it was more than 100 µM.

As for `O=C(CCc1ccccc1)On1nnc2ccccc2c1=O`, the TGI in assay [1], in [2], in assay [3], in assay [4], in assay [5] and in assay [6] was more than 100 µM each time. The TGI in assay [7] and in [9] was more than 100 µM each time.

Turning to `COc1ccc(/C(Cl)=C(\C=O)c2ccc(Br)cc2)cc1OC`, the TGI in assay [1] is more than 100 µM; in assay [2] it was more than 100 µM; in [3] it was more than 100 µM; in assay [4], more than 100 µM; in assay [5] it was 30 µM; in assay [6], more than 100 µM. Moreover, the TGI in assay [7] and in assay [8] was more than 100 µM throughout.

As a reminder, the GI50 is the concentration that inhibits growth by half. For `COc1ccc(OC)c(-c2cc(-c3ccccc3)nn2-c2ccc(S(N)(=O)=O)cc2)c1`, the GI50 in assay [1] was 23.3 µM; in assay [10], 12.2 µM; in [6] it was 12.1 µM; in assay [7] it was 5.07 µM; in [8], 1.93 µM. Further, the TGI was more than 100 µM in [1]; 28 µM in assay [10]; 24.7 µM in [6]; 17.1 µM in assay [7]; 4.84 µM in [8].

For `Cc1ccc(S(=O)(=O)NC(CCC(=O)Nc2ccccc2)C(=O)Nc2ccccc2)cc1` (stereo not given), the GI50 was 0.172 µM in [6], 0.309 µM in [8] and 0.273 µM in [9]. Also, the TGI worked out at 1.12 µM in [6], 1.58 µM in [8] and 1.31 µM in assay [9].

Regarding `O=C1OC(c2ccccc2)=N/C1=C\c1c(O)cc(O)cc1O`, the TGI in [1], in assay [2], in assay [3], in assay [4], in assay [5] and in assay [6] was more than 100 µM throughout. Also, the TGI in assay [7], in assay [8] and in assay [9] was more than 100 µM in each case.

Turning to `COc1cc(OC)c(OC)cc1/C=C1\C=Cc2ccccc21`, the TGI was more than 100 µM in assay [1]; more than 100 µM in [3]; more than 100 µM in assay [10]; 61.4 µM in assay [7]; more than 100 µM in assay [8]; 21.9 µM in [9].

Regarding `Cc1cccc2c1Oc1cc(Cl)ccc1C2NC(=O)CN(C)C` (stereo not given), the TGI in assay [1] was more than 100 µM; in assay [2], more than 100 µM; in assay [3], more than 100 µM; in assay [4] it was more than 100 µM; in [5], 68.8 µM; in assay [6] it was 70 µM. The TGI in assay [7], in [8] and in assay [9] was more than 100 µM in each case.

As to `CC1=Nc2c([nH]c(=S)[nH]c2=O)NC(c2ccc(Cl)c(Cl)c2)C1` (stereo not given), the TGI in assay [1] is 40.8 µM; in assay [2], more than 59.8 µM; in assay [3], 32.7 µM; in [4], 57.9 µM; in assay [5], more than 100 µM; in assay [6], more than 63.7 µM. Further, the TGI in [7] was more than 60.1 µM; in assay [8], more than 100 µM; in assay [9], 30.1 µM.

Regarding `O=C(N/C(=C\c1ccc(Br)cc1)c1nc2ccccc2s1)c1ccccc1`, the TGI in assay [1], in [2], in [3], in assay [4], in assay [5] and in assay [6] was more than 100 µM throughout. In addition, the TGI in assay [7], in assay [8] and in assay [9] was more than 100 µM throughout.

For the molecule `Cc1[nH]c(=O)nc(CC(O)(c2ccccc2)c2ccccc2)c1-c1ccccc1`, the TGI in assay [1], in [2], in assay [3], in assay [4], in assay [5] and in [6] was more than 100 µM each time. The TGI in assay [7] and in assay [9] was more than 100 µM throughout.

As for `O=C(O)c1ccc(N=Nc2cc(S(=O)(=O)O)c3cccnc3c2O)cc1`, the TGI in [1], in assay [2], in [3], in [4], in assay [5] and in assay [7] was more than 100 µM each time. For the same molecule, the TGI in assay [8] and in assay [9] was more than 100 µM each time.

Take `CCN(CC)CCCCCOc1cc(O)c2c(=O)cc(-c3ccccc3)oc2c1`: the GI50 was 2.08 µM in [1]; 6.76 µM in [2]; 2.13 µM in assay [3]; 7.27 µM in assay [4]; 13 µM in assay [5]; 1.74 µM in [6]. Besides, the GI50 in assay [7] is 1.58 µM; in assay [9] it was 1.74 µM. Moreover, the TGI in assay [1] was found to be 4.87 µM; in [2], 21.3 µM; in assay [3], 5.02 µM; in [4], 20.5 µM; in assay [5], 25.6 µM; in assay [6], 3.15 µM. The TGI in assay [7] came out at 3.76 µM; in assay [9], 3.52 µM.

Turning to `N#CCC(=O)N/N=C1/C(=O)NC(=O)C(=O)C1c1nc2ccccc2s1` (stereo not given), the TGI in assay [1], in [2], in assay [3], in [4], in assay [5] and in assay [6] was more than 100 µM in each case. Also, the total growth inhibition concentration (TGI) in [7], in assay [8] and in assay [9] was more than 100 µM in each case.

As for `CCOC(=O)C1=C(NC(C)(C)C)OCC1=O`, the TGI in [1], in [2], in assay [3], in assay [4], in assay [5] and in assay [6] was more than 100 µM each time. Besides, the TGI in [7], in assay [8] and in assay [9] was more than 100 µM each time.

In the case of `CN(/N=C/c1ccnc2ccccc12)c1ccc([N+](=O)[O-])cc1[N+](=O)[O-]`, the TGI in assay [1] is more than 100 µM; in assay [2], more than 100 µM; in [3], more than 100 µM; in [4], more than 100 µM; in [5] it was 40 µM; in [6], more than 100 µM. Besides, the TGI in assay [7] and in [8] was more than 100 µM each time.

As to `CN(C)c1nc(N(C)C)n2nc(-c3ccccc3[N+](=O)[O-])nc2n1`, the TGI in assay [1], in [2], in [3], in [4], in [5] and in assay [6] was more than 100 µM throughout. For the same molecule, the figures for the TGI in [7], in [8] and in assay [9] were 31.3 µM, more than 100 µM and 89.2 µM, respectively.

Turning to `CC(C)c1cc(CNc2nc(Nc3cc(C4CC4)[nH]n3)cc(N3CCN(C)CC3)n2)on1`, the GI50 in [1] is 0.462 µM and 0.175 µM; in assay [2], 4.59 µM and 0.471 µM; in assay [4], 2.14 µM and 0.731 µM; in assay [8], 8.33 µM and 1.7 µM. The TGI in assay [1] was 4.94 µM and 7.13 µM; in assay [2], > 10 µM and 23.3 µM; in [10], > 10 µM and 7.02 µM; in assay [4] it was > 10 µM and 4.57 µM; in assay [6] it was > 10 µM and 2.35 µM; in assay [7], > 10 µM and 8.47 µM. The TGI in [8] is > 10 µM and 5.76 µM; in [9] it was > 10 µM and 44.6 µM.

For the molecule `Fc1ccc(F)c(C2SCc3nc4ccccc4n32)c1` (stereo not given), the TGI in assay [1], in assay [2], in assay [3], in assay [4], in assay [5] and in [6] was more than 100 µM in each case. Besides, the TGI in assay [7], in assay [8] and in assay [9] was more than 100 µM in each case.

Turning to `COc1ccc(/C=C/c2nc(=S)[nH][nH]2)cc1`, the TGI in assay [1], in assay [2], in assay [4], in assay [5], in assay [6] and in [7] was more than 100 µM throughout. Also, the TGI in [8] and in assay [9] was more than 100 µM throughout.

`COC(=O)C1=C(c2cc(OC)c(OC)c(OC)c2)OC(c2cc(OC)c(OC)c(OC)c2)C1COC(C)=O` (stereo not given): the TGI in [1] is more than 100 µM; in assay [2] it was more than 100 µM; in [3], 33.4 µM; in assay [4] it was more than 100 µM; in [5], more than 100 µM; in assay [6], more than 100 µM. In addition, the TGI in assay [7], in assay [8] and in [9] was more than 100 µM each time.

For the molecule `OCC(O)COc1c(Cl)ccc(Cl)c1Cl` (stereo not given), the TGI in assay [1], in assay [2], in assay [3], in assay [4], in assay [5] and in assay [6] was more than 100 µM in each case. In addition, the TGI in assay [7] and in assay [9] was more than 100 µM throughout.

Regarding `O=C(CCC(=O)N/N=C/c1ccccc1O)N/N=C/c1ccccc1O`, the TGI is more than 100 µM in assay [1]; more than 100 µM in assay [2]; more than 100 µM in assay [3]; more than 100 µM in assay [4]; 31.7 µM in [5]; more than 100 µM in assay [6]. Further, the TGI in assay [7], in assay [8] and in [9] was more than 100 µM each time.

`COC1(OC)CC2C(=O)N(Cc3ccccc3)C1CC2S(=O)(=O)c1ccccc1` (stereo not given): the TGI in assay [1], in assay [2], in assay [3], in assay [5], in assay [6] and in assay [7] was more than 100 µM throughout. Besides, the TGI in [8] and in [9] was more than 100 µM in each case.

Take `CCOC(=O)CC1=NC(=Nc2cc(Cl)ccc2Cl)SC1`: the TGI in assay [1], in assay [2], in assay [3], in assay [4], in assay [5] and in assay [6] was more than 100 µM in each case. Further, the TGI in assay [7] and in assay [9] was more than 100 µM in each case.

Turning to `CCOC(=O)c1cc2cc(NC(=O)c3cc4cc([N+](=O)[O-])ccc4n3C)ccc2n1C`, the GI50 in [1] was more than 100 µM; in assay [2], 22.7 µM; in assay [3], 76.5 µM; in assay [10] it was 22.6 µM; in assay [6], 12.3 µM; in assay [7], 15.4 µM. In addition, the GI50 is 49.7 µM in assay [8] and 14.6 µM in assay [9]. For the same molecule, the TGI in [1] was more than 100 µM; in [2], more than 100 µM; in assay [3] it was more than 100 µM; in [10], 52.9 µM; in assay [6] it was 27.1 µM; in [7] it was 51.6 µM. Also, the TGI in assay [8] is more than 100 µM; in assay [9], 30.3 µM.

Regarding `C[C@H]1COC2(c3ccccc3)CCC(=O)N12` (stereo not given in full), the TGI in assay [1], in [2], in assay [3], in assay [4], in [5] and in assay [6] was more than 100 µM each time. Further, the TGI in assay [7], in assay [8] and in assay [9] was more than 100 µM each time.

As for `CCc1ccc(/C(C)=N/NC(N)=S)cc1`, the TGI in assay [1], in assay [2], in assay [3], in assay [4], in assay [6] and in assay [8] was more than 100 µM throughout. For the same molecule, the TGI in [9] was more than 100 µM.

For the molecule `O=C(CCCNC(=O)OCc1ccccc1)OCc1ccc2c(c1)C(=O)c1ccccc1C2=O`, the TGI was 99 µM in [1]; more than 100 µM in [2]; more than 23 µM in assay [3]; more than 100 µM in [4]; 40.3 µM in assay [5]; more than 100 µM in [6]. Also, the TGI in assay [7], in [8] and in [9] was more than 100 µM each time.

Source of the values: PubChem BioAssay (NCI).
